Structures can show the parent of a compound that is named as a salt. Where two headings read alike, the source gives them in different places.
Test system: P. falciparum infected erythrocytes
Test: P. falciparum growth inhibition assay ([3H]hypoxanthine incorporation)
Format: cell-based, Plasmodium falciparum
Description: P. falciparum Growth Inhibition Assay.
The sensitivity of P. falciparum infected erythrocytes to the compound was determined in duplicate using the [3H]hypoxanthine incorporation method with an inoculum of 0.5% parasitemia (ring stage) and 2% hematocrit. The parasites were grown in RPMI 1640, 25 mM HEPES and supplemented with 5% Albumax. Plates are incubated at 37° C., 5% CO2, 5% O2, 90% N2. After 24 h of incubation, [3H]hypoxanthine is added and plates are incubated for another 24 h. After that period, plates are harvested on a glass fiber filter using a TOMTEC Cell harvester 96. Filters are dried and melt on scintillator sheets and the bound radioactivity is quantified by use of a Wallac Microbeta Trilux (Model 1450 LS—Perkin Elmer). IC50s are determined using Grafit 7 program (Grafit program; Erithacus Software, Horley, Surrey, United Kingdom).
Each example compound was tested generally in accordance with the above-mentioned assay and the PfIC50 value for each compound is reported in the Table below and according to the following: […]

[1] = [3H]hypoxanthine incorporation, 0.5% parasitemia, 2% hematocrit, 48 h, read-out: PfIC50 Media
[2] = Plasmodium falciparum, Erythrocyte, [3H]hypoxanthine incorporation, 0.5% parasitemia, 2% hematocrit, 48 h, read-out: PfIC50 Media
[3] = Plasmodium falciparum, Erythrocyte, read-out: average PfIC50

Row | Structure (SMILES) | IC50 [2] [µM] | IC50 [3] [µM] | further results
1 | N#Cc1ccc(C2CCN(C(=O)c3ccc(OC[C@H](O)Cn4ncnn4)cc3)C2)cc1 (single isomer, unassigned) [Example 43b] |  |  | IC50 [1]: 1 to 5 µM
2 | O=C(c1ccc(OC[C@H](O)Cn2cnnn2)cc1F)N1CC[C@H](c2ccc(F)cc2)C1 [Example 26, (2-fluoro-4-((R)-2-hydroxy-3-(1H-tetrazol-1-yl)propoxy)phenyl)((R)-3-(4-fluorophenyl)pyrrolidin-1-yl)methanone] | 0.1 to 0.5 |  | 
3 | O=C(c1ccc(OC[C@H](O)Cn2nccn2)cc1)N1CC[C@H](c2ccc(Cl)cc2)C1 [Example 31, ((R)-3-(4-chlorophenyl)pyrrolidin-1-yl)(4-((R)-2-hydroxy-3-(2H-1,2,3-triazol-2-yl)propoxy)phenyl)methanone] | < 0.1 | ≤ 0.05 | 
4 | O=C(c1ccc(OC[C@@H](O)Cn2ncnn2)cc1)N1CC[C@@H](c2ccc(F)cc2)C1 [Example 14, ((S)-3-(4-Fluorophenyl)pyrrolidin-1-yl)(4-((S)-2-hydroxy-3-(2H-tetrazol-2-yl)propoxy)phenyl)methanone] | 1 to 5 | 1.2 | 
5 | Cn1cc(CC(O)COc2ccc(C(=O)N3CC[C@H](c4ccc(F)cc4)C3)cc2)cn1 (mixture of isomers) [Example 37, ((R)-3-(4-Fluorophenyl)pyrrolidin-1-yl)(4-(2-hydroxy-3-(1-methyl-1H-pyrazol-4-yl)propoxy)phenyl)methanone] | 1 to 5 |  | 
6 | O=C(c1ccc(OC[C@H](O)Cn2cccn2)cc1)N1CC[C@H](c2ccc(F)cc2)C1 [Example 19, ((R)-3-(4-fluorophenyl)pyrrolidin-1-yl)(4-((R)-2-hydroxy-3-(1H-pyrazol-1-yl)propoxy)phenyl)methanone] | < 0.1 | ≤ 0.05 | 
7 | O=C(c1ccc(OCC(F)(F)Cn2cnnn2)cc1)N1CC[C@H](c2ccc(F)cc2)C1 [Example 4, (R)-(4-(2,2-Difluoro-3-(1H-tetrazol-1-yl)propoxy)phenyl)(3-(4-fluorophenyl)-pyrrolidin-1-yl)methanone] | < 0.1 | ≤ 0.05 | 
8 | O=C(c1ccc(OC[C@H](O)Cn2cncn2)cc1)N1CC[C@H](c2ccc(F)cc2)C1 [Example 15, ((R)-3-(4-fluorophenyl)pyrrolidin-1-yl)(4-((R)-2-hydroxy-3-(1H-1,2,4-triazol-1-yl)propoxy)phenyl)methanone] | < 0.1 | ≤ 0.05 | 
9 | Cn1ccc(CC(O)COc2ccc(C(=O)N3CC[C@H](c4ccc(F)cc4)C3)cc2)n1 (single isomer, unassigned) [Example 36a] | < 0.1 |  | 
10 | N[C@@H](COc1ccc(C(=O)N2CC[C@@H](c3ccc(F)cc3)C2)cc1)Cn1ncnn1 [Example 50, (4-((R)-2-amino-3-(2H-tetrazol-2-yl)propoxy)phenyl)((S)-3-(4-fluorophenyl)pyrrolidin-1-yl)methanone, Hydrochloride] | 0.1 to 0.5 |  | IC50 (Plasmodium falciparum, Erythrocyte, hydrochloride salt, read-out: average PfIC50 of the hydrochloride salt): 0.219 µM
11 | CC(COc1ccc(C(=O)N2CC[C@H](c3ccc(F)cc3)C2)cc1)Cn1cnnn1 (single isomer, unassigned) [Example 1a] | 0.1 to 0.5 |  | 
12 | N[C@@H](COc1ccc(C(=O)N2CC[C@H](c3ccc(F)cc3)C2)cc1)Cn1nccn1 [Example 53, (4-((R)-2-amino-3-(2H-1,2,3-triazol-2-yl)propoxy)phenyl)((R)-3-(4-fluorophenyl)pyrrolidin-1-yl)methanone, Hydrochloride] | < 0.1 |  | 
13 | N[C@@H](COc1ccc(C(=O)N2CC[C@H](c3ccc(F)cc3)C2)cc1)Cn1cnnn1 [Example 46, (4-((R)-2-amino-3-(1H-tetrazol-1-yl)propoxy)phenyl)((R)-3-(4-fluorophenyl)pyrrolidin-1-yl)methanone] | < 0.1 |  | 
14 | Cn1nnc(C[C@@H](O)COc2ccc(C(=O)N3CC[C@H](c4ccc(F)cc4)C3)cc2)n1 [Example 23, ((R)-3-(4-fluorophenyl)pyrrolidin-1-yl)(4-((R)-2-hydroxy-3-(2-methyl-2H-tetrazol-5-yl)propoxy)phenyl)methanone] | < 0.1 |  | 
15 | COc1ccc(C2CCN(C(=O)c3ccc(OC[C@H](O)Cn4ncnn4)cc3)C2)cc1 (single isomer, unassigned) [Example 44a] |  |  | IC50 [1]: < 0.1 µM
16 | O=C(c1ccc(OC[C@H](O)Cn2ccnn2)cc1)N1CC[C@H](c2ccc(F)cc2)C1 [Example 17, ((R)-3-(4-fluorophenyl)pyrrolidin-1-yl)(4-((R)-2-hydroxy-3-(1H-1,2,3-triazol-1-yl)propoxy)phenyl)methanone] | < 0.1 | ≤ 0.05 | 
17 | O=C(c1ccc(OC[C@@H](F)Cn2ncnn2)cc1)N1CC[C@H](c2ccc(F)cc2)C1 [Example 12] | < 0.1 | ≤ 0.05 | 

Row | Structure (SMILES) | IC50 [2] [µM] | IC50 [3] [µM] | further results
18 | O=C(c1ccc(OC[C@@H](O)Cn2cnnn2)cc1)N1CC[C@H](c2ccc(F)cc2)C1 [Example 6, ((R)-3-(4-Fluorophenyl)pyrrolidin-1-yl)(4-((S)-2-hydroxy-3-(1H-tetrazol-1-yl)propoxy)phenyl)methanone] | 0.1 to 0.5 |  | 
19 | O=C(c1ccc(OC[C@H](O)Cn2cnnn2)cc1)N1CC[C@H](c2ccc(F)cc2)C1 [Example 5, ((R)-3-(4-Fluorophenyl)pyrrolidin-1-yl)(4-((R)-2-hydroxy-3-(1H-tetrazol-1-yl)propoxy)phenyl)methanone] | < 0.1 | ≤ 0.05 | 
20 | CC(O)(COc1ccc(C(=O)N2CC[C@H](c3ccc(F)cc3)C2)cc1)Cn1cnnn1 (single isomer, unassigned) [Example 10a] | 1 to 5 |  | 
21 | Cc1nnnn1C[C@@H](O)COc1ccc(C(=O)N2CC[C@H](c3ccc(F)cc3)C2)cc1 [Example 21, ((R)-3-(4-fluorophenyl)pyrrolidin-1-yl)(4-((R)-2-hydroxy-3-(5-methyl-1H-tetrazol-1-yl)propoxy)phenyl)methanone] | 0.5 to 1 |  | 
22 | O=C(c1ccc(OC[C@H](O)Cn2ncnn2)cc1)N1CCC(c2ccc(F)cc2F)C1 (single isomer, unassigned) [Example 42b] |  |  | IC50 [1]: 0.1 to 0.5 µM
23 | CC(O)(COc1ccc(C(=O)N2CC[C@H](c3ccc(F)cc3)C2)cc1)Cn1ncnn1 (single isomer, unassigned) [Example 9a] | 0.1 to 0.5 |  | 
24 | O=C(c1ccc(OCC(F)Cn2cnnn2)cc1)N1CC[C@H](c2ccc(F)cc2)C1 (single isomer, unassigned) [Example 3a] | 0.1 to 0.5 |  | 
25 | O=C(c1ccc(OC[C@H](O)Cn2cncn2)cc1)N1CC[C@H](c2ccc(Cl)cc2)C1 [Example 30, ((R)-3-(4-chlorophenyl)pyrrolidin-1-yl) (4-((R)-2-hydroxy-3-(1H-1,2,4-triazol-1-yl)propoxy)phenyl)methanone] | < 0.1 |  | 
26 | Cc1nnn(C[C@@H](O)COc2ccc(C(=O)N3CC[C@H](c4ccc(F)cc4)C3)cc2)n1 [Example 22, ((R)-3-(4-fluorophenyl)pyrrolidin-1-yl)(4-((R)-2-hydroxy-3-(5-methyl-2H-tetrazol-2-yl)propoxy)phenyl)methanone] | < 0.1 |  | 
27 | O=C(c1ccc(OC[C@H](O)Cn2ncnn2)cc1)N1CC[C@@H](c2ccc(F)cc2)C1 [Example 13, ((S)-3-(4-Fluorophenyl)pyrrolidin-1-yl)(4-((R)-2-hydroxy-3-(2H-tetrazol-2-yl)propoxy)phenyl)methanone] | < 0.1 | 0.054 | 
28 | N[C@@H](COc1ccc(C(=O)N2CC[C@H](c3ccc(Cl)cc3)C2)cc1)Cn1cnnn1 [Example 47, (4-((R)-2-amino-3-(1H-tetrazol-1-yl)propoxy)phenyl)((R)-3-(4-chlorophenyl)pyrrolidin-1-yl)methanone] | < 0.1 |  | IC50 (Plasmodium falciparum, Erythrocyte, hydrochloride salt of the example, same assay, read-out: PfIC50 Media (uM), (HCl)): < 0.1 µM
29 | Cn1nnnc1C[C@@H](O)COc1ccc(C(=O)N2CC[C@H](c3ccc(F)cc3)C2)cc1 [Example 24, ((R)-3-(4-fluorophenyl)pyrrolidin-1-yl)(4-((R)-2-hydroxy-3-(1-methyl-1H-tetrazol-5-yl)propoxy)phenyl)methanone] | 0.1 to 0.5 |  | 
30 | O=C(c1ccc(OC[C@H](O)Cn2ccnn2)cc1)N1CC[C@H](c2ccc(Cl)cc2)C1 [Example 32, ((R)-3-(4-chlorophenyl)pyrrolidin-1-yl)(4-((R)-2-hydroxy-3-(1H-1,2,3-triazol-1-yl)propoxy)phenyl)methanone] | < 0.1 | ≤ 0.05 | 
31 | O=C(c1ccc(OC[C@H](O)Cn2ncnn2)cc1)N1CC[C@H](c2ccc(Cl)cc2)C1 [Example 29, ((R)-3-(4-chlorophenyl)pyrrolidin-1-yl)(4-((R)-2-hydroxy-3-(2H-tetrazol-2-yl)propoxy)phenyl)methanone] | < 0.1 | ≤ 0.05 | 
32 | O=C(c1ccc(OC[C@@H](O)Cn2ncnn2)cc1)N1CC[C@H](c2ccc(F)cc2)C1 [Example 8, ((R)-3-(4-fluorophenyl)pyrrolidin-1-yl)(4-((S)-2-hydroxy-3-(2H-tetrazol-2-yl)propoxy)phenyl) methanone] | < 0.1 | 0.052 | 
33 | N[C@@H](COc1ccc(C(=O)N2CC[C@H](c3ccc(F)cc3)C2)cc1)Cn1cncn1 [Example 52, (4-((R)-2-amino-3-(1H-1,2,4-triazol-1-yl)propoxy)phenyl)((R)-3-(4-fluorophenyl)pyrrolidin-1-yl)methanone, Hydrochloride] | 0.1 to 0.5 |  | 
34 | O=C(c1ccc(OC[C@H](O)Cn2cnnn2)cc1F)N1CC[C@H](c2ccc(Cl)cc2)C1 [Example 33, ((R)-3-(4-chlorophenyl)pyrrolidin-1-yl) (2-fluoro-4-((R)-2-hydroxy-3-(1H-tetrazol-1-yl)propoxy)phenyl)methanone] | 0.1 to 0.5 |  | 

Reference: patent US11453657B2 (GlaxoSmithKline Intellectual Property Development Limited, priority 2018, dated 2022)
